Key:
[1] = target: T1, Interstitial collagenase (Homo sapiens, UniProt P03956); assay: biochemical; assay type: tissue-based, Rheumatoid synovial fibroblasts;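 note: MMP-1 enzyme inhibition assay using a peptide substrate; in other assays of this panel Not Active means under 50% inhibition at 10 µM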
T1 sequence (P03956 whole entry): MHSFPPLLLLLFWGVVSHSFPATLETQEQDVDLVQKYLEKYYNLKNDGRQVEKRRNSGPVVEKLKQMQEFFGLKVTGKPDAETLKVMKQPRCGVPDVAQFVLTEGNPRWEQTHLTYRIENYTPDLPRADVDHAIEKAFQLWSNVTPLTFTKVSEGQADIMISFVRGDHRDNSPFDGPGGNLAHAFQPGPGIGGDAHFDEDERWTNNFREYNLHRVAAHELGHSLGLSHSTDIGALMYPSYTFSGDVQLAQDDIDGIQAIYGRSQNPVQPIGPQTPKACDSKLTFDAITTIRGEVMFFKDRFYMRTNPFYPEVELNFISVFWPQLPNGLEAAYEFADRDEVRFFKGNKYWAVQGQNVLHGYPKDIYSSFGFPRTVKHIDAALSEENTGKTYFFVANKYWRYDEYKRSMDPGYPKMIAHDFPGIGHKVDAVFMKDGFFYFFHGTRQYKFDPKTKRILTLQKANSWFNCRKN

[2] = target: T2, Adenosine receptor A3 (Homo sapiens, UniProt P0DMS8); assay type: cell membranes, CHO-K1, Membrane; conditions: cho-k1;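 note: radioligand binding assay with AB-MECA serving as the labeled ligand; in other assays of this panel Not Active means under 50% inhibition at 10 µM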
T2 sequence (P0DMS8 whole entry): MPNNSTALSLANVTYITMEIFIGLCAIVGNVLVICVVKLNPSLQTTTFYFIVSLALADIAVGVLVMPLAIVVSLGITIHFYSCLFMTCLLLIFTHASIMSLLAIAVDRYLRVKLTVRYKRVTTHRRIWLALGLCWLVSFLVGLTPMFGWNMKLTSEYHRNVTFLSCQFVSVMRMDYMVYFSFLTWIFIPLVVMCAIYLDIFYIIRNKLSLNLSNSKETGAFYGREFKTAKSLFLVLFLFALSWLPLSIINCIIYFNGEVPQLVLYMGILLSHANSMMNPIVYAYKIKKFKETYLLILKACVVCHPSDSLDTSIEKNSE

[3] = DRUGMATRIX: Calcium Channel Type L, Phenylalkylamine radioligand binding (ligand: [3H] (-)-Desmethoxyverapamil (D-888)); assay type: cell membranes, Rattus norvegicus, Wistar, Brain, Membrane; conditions: Not Active = under 50% inhibition at 10 µM
[4] = target: D(3) dopamine receptor (Homo sapiens, UniProt P35462); assay: DRUGMATRIX: Dopamine D3 radioligand binding (ligand: [3H] Spiperone); assay type: cell membranes, CHO, Membrane; conditions: cho
Sequence of D(3) dopamine receptor (P35462 whole entry): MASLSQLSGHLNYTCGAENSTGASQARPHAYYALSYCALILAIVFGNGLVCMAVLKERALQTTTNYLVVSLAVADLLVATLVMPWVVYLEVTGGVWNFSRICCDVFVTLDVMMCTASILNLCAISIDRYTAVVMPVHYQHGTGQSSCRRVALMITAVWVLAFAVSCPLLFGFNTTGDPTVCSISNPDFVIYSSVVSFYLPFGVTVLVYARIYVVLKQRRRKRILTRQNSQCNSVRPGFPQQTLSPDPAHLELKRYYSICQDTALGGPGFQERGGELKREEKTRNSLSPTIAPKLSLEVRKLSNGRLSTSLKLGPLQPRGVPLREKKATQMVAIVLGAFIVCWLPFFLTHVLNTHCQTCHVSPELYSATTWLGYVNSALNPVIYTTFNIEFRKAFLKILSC

[5] = target: Histamine H2 receptor (Homo sapiens, UniProt P25021); assay type: cell membranes, CHO-K1, Membrane; conditions: cho-k1; note: in other assays of this panel Not Active means under 50% inhibition at 10 µM
Sequence of Histamine H2 receptor (P25021 whole entry): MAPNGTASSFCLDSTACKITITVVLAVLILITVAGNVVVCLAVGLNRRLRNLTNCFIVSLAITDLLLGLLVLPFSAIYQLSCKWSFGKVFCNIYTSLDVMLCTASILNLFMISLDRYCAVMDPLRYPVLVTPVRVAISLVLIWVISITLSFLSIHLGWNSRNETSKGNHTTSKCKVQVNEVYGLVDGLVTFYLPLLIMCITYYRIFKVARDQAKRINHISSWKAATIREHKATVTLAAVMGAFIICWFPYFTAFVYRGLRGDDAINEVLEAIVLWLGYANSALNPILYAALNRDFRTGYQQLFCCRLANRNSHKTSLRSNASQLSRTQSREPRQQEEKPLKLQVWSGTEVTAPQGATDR

Cc1nccn1CC1CCc2c(c3ccccc3n2C)C1=O (stereo unspecified) [ONDANSETRON]
Not Active: IC50 [1] | IC50 [2] | IC50 [3] | Ki [3] | IC50 [4] | IC50 [5]

CCn1cc(C(=O)O)c(=O)c2cc(F)c(N3CCN(C)CC3)cc21 [PEFLOXACIN]
Not Active: IC50 [1] | IC50 [2] | IC50 [3] | Ki [3] | IC50 [4] | IC50 [5]

CCCCOc1ccc(OCCCN2CCOCC2)cc1 [PRAMOXINE]
Not Active: IC50 [1] | IC50 [2] | IC50 [3] | Ki [3] | IC50 [4] | IC50 [5]

O=C(C1CCCCC1)N1CC(=O)N2CCc3ccccc3C2C1 (stereo unspecified) [PRAZIQUANTEL]
Not Active: IC50 [1] | IC50 [2] | IC50 [3] | Ki [3] | IC50 [4] | IC50 [5]

CCN(CC)CCOC(=O)c1ccc(N)cc1 [PROCAINE]
Not Active: IC50 [1] | IC50 [2] | IC50 [3] | Ki [3] | IC50 [4] | IC50 [5]

CCCN(CCC)C(=O)C(CCC(=O)O)NC(=O)c1ccccc1 (stereo unspecified) [PROGLUMIDE]
Not Active: IC50 [1] | IC50 [2] | IC50 [3] | Ki [3] | IC50 [4] | IC50 [5]

NC(=O)c1cnccn1 [PYRAZINAMIDE]
Not Active: IC50 [1] | IC50 [2] | IC50 [3] | Ki [3] | IC50 [4] | IC50 [5]

OC(CCN1CCCCC1)(c1ccccc1)C1CCCCC1 (stereo unspecified) [TRIHEXYPHENIDYL]
Not Active: IC50 [1] | IC50 [2] | IC50 [3] | Ki [3] | IC50 [4] | IC50 [5]

Cc1cc2cc3c(C)cc(=O)oc3c(C)c2o1 [TRIOXSALEN]
Not Active: IC50 [1] | IC50 [2] | IC50 [3] | Ki [3] | IC50 [4] | IC50 [5]

CCCC(CCC)C(=O)O [VALPROIC ACID]
Not Active: IC50 [1] | IC50 [2] | IC50 [3] | Ki [3] | IC50 [4] | IC50 [5]

CCC1=C[C@@H]2CN(C1)Cc1c([nH]c3ccccc13)[C@@](C(=O)OC)(c1cc3c(cc1OC)N(C)[C@H]1[C@@](O)(C(=O)OC)[C@H](OC(C)=O)[C@]4(CC)C=CCN5CC[C@]31[C@@H]54)C2 [VINORELBINE]
Not Active: IC50 [1] | IC50 [2] | IC50 [3] | Ki [3] | IC50 [4] | IC50 [5]

CADMIUM DICHLORIDE
Not Active: IC50 [1] | Ki [1] | IC50 [2] | Ki [2] | IC50 [3] | Ki [3] | IC50 [4] | Ki [4] | IC50 [5] | Ki [5]
